Where a SMILES comes first, the peptide text is derived from it.
Tests used:
[1] = system: microbial cells of Sphingobacterium sp. strain FERM BP-8124; assay: Production of L-alanyl-L-glutamine using microbial cells of Sphingobacterium sp.; type: cell-based; settings: 0.1 mL cell suspension (100 g/L) + 0.1 mL buffer with 200 mM L-alanine methyl ester hydrochloride, 400 mM L-glutamine; pH 9.0, 25° C., 120 minutes
Procedure: A 50 ml medium (pH 7.0) containing 5 g of glucose, 5 g of ammonium sulfate, 1 g of monopotassium phosphate, 3 g of dipotassium phosphate, 0.5 g of magnesium sulfate, 10 g of yeast extract, and 10 g of peptone in 1 L was transferred to a 500 mL Sakaguchi flask and sterilized at 11 5° C. for 15 minutes for culturing Sphingobacterium sp. strain FERM BP-8124 (Depositary institution: the independent administrative corporation, National Institute of Advanced Industrial Science and Technology, International Patent Organism Depositary, Address of depositary institution: Chuo Dai-6, 1-1 Higashi 1-Chome, Tsukuba-shi, Ibaraki-ken, Japan, International deposit date: Jul. 22, 2002). This medium was then inoculated with one loopful cells of Sphingobacterium sp. strain FERM BP-8124 (Depositary institution: the independent administrative corporation, National Institute of Advanced Industrial Science and Technology, International Patent Organism Depositary, Address of depositary institution: Chuo Dai-6, 1-1 Higashi 1-Chome, Tsukuba-shi, Ibaraki-ken, Japan, International deposit date: Jul. 22, 2002) cultured at 30° C. for 24 hours in a slant agar medium (agar: 20 g/L, pH 7.0) containing 5 g of glucose, 10 g of yeast extract, 10 g of peptone and 5 g of NaCl in 1 L, followed by shake culturing at 30° C. for 20 hours and 120 strokes/minute. […]

[2] = system: microbial cells of Empedobacter brevis strain FERM BP-8113; assay: Production of peptide using microbial cells; type: cell-based; settings: 1 mL cell suspension (100 g/L) + 1 mL buffer with 200 mM carboxy component (hydrochloride) and 400 mM amino acid; borate buffer pH 9.0, 10 mM EDTA; 18° C., 2 hours
Procedure: A 50 mL medium (pH 6.2) containing 5 grams (g) of glucose, 5 g of ammonium sulfate, 1 g of monopotassium phosphate, 3 g of dipotassium phosphate, 0.5 g of magnesium sulfate, 10 g of yeast extract and 10 g of peptone in 1 liter (L) was transferred to a 500 mL Sakaguchi flask and sterilized at 115° C. for 15 minutes. This medium was then inoculated with one loopful cells of Empedobacter brevis strain FERM BP-8113 (Depositary institution: the independent administrative corporation, National Institute of Advanced Industrial Science and Technology, International Patent Organism Depositary, Address of depositary institution: Chuo Dai-6, 1-1 Higashi 1-Chome, Tsukuba-shi, Ibaraki-ken, Japan, International deposit transfer date: Jul. 8, 2002) that had been cultured at 30° C. for 16 hours in the same medium, followed by shake culturing at 30° C. for 16 hours and 120 strokes/min.

SMILES: C[C@H](N)C(=O)N[C@@H](CCC(N)=O)C(=O)O [L-Ala-L-Gln, L-alanyl-L-glutamine] (H-Ala-Gln-OH)
- L-alanyl-L-glutamine formed [1]: 62 mM
- Formed peptide [2]: 68.0 mM

Reference: patent US20040204577A1, “Novel peptide-forming enzyme gene” (Ajinomoto Co., Inc., priority 2003, published 2004)
